Data as given in patent US12162848B2, “Inhibitors of protein tyrosine phosphatase, compositions, and methods of use” (BRISTOL-MYERS SQUIBB COMPANY, priority 2022, dated 2024).

Assays:
B16-F10 cells = assay: Cell proliferation assay (CellTiter-Glo) in IFN-gamma treated B16-F10 cells; format: cell-based; conditions: 120 h, mouse IFN-gamma 10 ng/mL, read-out: PTPN2 Prolif 5d B16F10 EC50
Method: B16-F10 cells (ATCC, Manassas, VA, #CRL-6475) were cultured in DMEM growth medium (ThermoFisher Scientific, Waltham, MA, #11995-040) supplemented with 10% heat inactivated FBS (ThermoFisher Scientific, #16140-071) and 1% pen/strep (ThermoFisher Scientific, #15140-122). The cells were seeded into two white opaque 384-well tissue culture treated microplates (PerkinElmer, Waltham, MA, #6007688) at a density of 100 cells/well in 20 uL total volume and incubated overnight at 37 C and 5% CO2. 30 nL of compounds dissolved in DMSO were then transferred from a source plate into target wells with the Echo650 acoustic liquid handler (Beckman Coulter, Indianapolis, IN). Negative control wells received 30 nL of DMSO only (0.15% final concentration). Plates were returned to the incubator for 1 hour and then cells treated with either 5 uL of growth medium or 5 uL of growth medium containing 50 ng/mL of recombinant mouse IFN-gamma protein (R&D Systems, Minneapolis, MN, #485-MI/CF, 10 ng/mL final concentration) using the Assist automated pipetting platform (INTEGRA Biosciences, Hudson, NH). Plates were incubated at 37 C for 4 days and cell proliferation assayed with the CellTiter-Glo reagent (Promega, Madison, WI, #G7573, 25 uL per well). […] Off-target compound mediated cytotoxicity was identified by checking for growth inhibition in the absence of IFNg.

[1] = tested on: phosphorylated STAT1 protein levels in B16-F10 cells; assay: Phospho-STAT1 (Tyr701) HTRF assay in IFN-gamma treated B16-F10 cells; format: cell-based; conditions: mouse IFN-gamma 100 ng/mL, 1 hour, read-out: pSTAT1 HTRF B16 EC50
Method: B16-F10 cells (ATCC, Manassas, VA, #CRL-6475) were cultured in DMEM growth medium (ThermoFisher Scientific, Waltham, MA, #11995-040) supplemented with 10% heat inactivated FBS (ThermoFisher Scientific, #16140-071) and 1% pen/strep (ThermoFisher Scientific, #15140-122). The cells were seeded into a white opaque 384-well tissue culture treated microplate (PerkinElmer, Waltham, MA, #6007688) at a density of 10,000 cells/well in 20 uL total volume and incubated overnight at 37 C and 5% CO2. 30 nL of compounds dissolved in DMSO were then transferred from a source plate into target wells with the Echo650 acoustic liquid handler (Beckman Coulter, Indianapolis, IN). Negative control wells received 30 nL of DMSO only (0.15% final concentration). Plates were returned to the incubator for 1 hour and then cells treated with either 5 uL of growth medium or 5 uL of growth medium containing 500 ng/mL of recombinant mouse IFN-gamma protein (R&D Systems, Minneapolis, MN, #485-MI/CF, 100 ng/mL final concentration) using the Assist automated pipetting platform (INTEGRA Biosciences, Hudson, NH). Plates were incubated at 37 C for 1 hour and assayed for phosphorylated STAT1 protein levels with the phospho-STAT1 (Tyr701) HTRF kit (Cisbio, Bedford, MA, #63ADK026PEH) according to manufacturer's instructions.

PTPN2 enzyme = target: T1, PTPN2 enzyme (Homo sapiens, UniProt P17706); assay: PhosphoSens PTPN2 biochemical assay; conditions: substrate AQT0264 20 μM, room temperature; read-out: PTPN2 BCHEM IC50
T1 sequence (P17706 1-415): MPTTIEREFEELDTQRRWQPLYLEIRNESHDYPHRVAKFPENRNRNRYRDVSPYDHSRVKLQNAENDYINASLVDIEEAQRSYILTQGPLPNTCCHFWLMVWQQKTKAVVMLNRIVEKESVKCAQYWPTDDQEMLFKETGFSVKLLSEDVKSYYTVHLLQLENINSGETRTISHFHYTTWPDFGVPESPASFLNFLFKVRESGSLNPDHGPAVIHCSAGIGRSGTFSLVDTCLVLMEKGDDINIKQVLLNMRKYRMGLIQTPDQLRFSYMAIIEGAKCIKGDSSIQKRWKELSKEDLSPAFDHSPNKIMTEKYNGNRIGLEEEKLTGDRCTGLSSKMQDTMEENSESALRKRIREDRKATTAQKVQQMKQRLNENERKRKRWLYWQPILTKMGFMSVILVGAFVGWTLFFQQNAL
Method: A PhosphoSens® kinase assay was performed as described by the vendor (AssayQuant Technologies, Marlborough, MA). Briefly, 1000×solutions of compounds were prepared in DMSO via serial dilution of the 10 mM DMSO stocks using 3-fold intervals in a 384-well reagent plate. 50 nL of the compound dilution series was then added to the corresponding wells of a 384-well assay plate. […] of 1.25×substrate (AQT0264) in 1× assay buffer (50 mM HEPES pH 7.5, 500 μM EGTA, […] MgCl2, 0.01% Brij-35, 1% Glycerol, 1 mM DTT, and 0.2 mg/mL BSA) was transferred to each well of the assay plate to achieve a final substrate concentration of 20 μM. Finally, […] of 5×PTPN2 enzyme stock was added to each well of the assay plate for a final enzyme concentration of […]. Reaction progress curves were collected by sampling fluorescence intensity at the excitation wavelength 360 nm (λex360) and emission wavelength 480 nm (λem480) every 71 seconds for one hour using a Synergy H4 plate reader (BioTek Instruments/Agilent Technologies, Winooski, VT) at room temperature.

SMILES | EC50 (B16-F10 cells) [µM] | EC50 [1] [µM] | IC50 (PTPN2 enzyme) [µM]
CC1(C)CCC(NCc2cc(O)c(N3CC(=O)NS3(=O)=O)c(F)c2)CC1 [EXAMPLE 37, 5-(4-(((4,4-dimethylcyclohexyl)amino)methyl)-2-fluoro-6-hydroxyphenyl)-1,2,5-thiadiazolidin-3-one 1,1-dioxide] | 0.812 | 1.33 | 0.035
CN(C)c1ccc(-c2cc(O)c(N3CC(=O)NS3(=O)=O)c(F)c2)cn1 [EXAMPLE 29, 5-[4-[6-(dimethylamino)-3-pyridyl]-2-fluoro-6-hydroxy-phenyl]-1,1-dioxo-1,2,5-thiadiazolidin-3-one] | ≥ 15 | ≥ 15 | 0.09
CC(C)CCN1CCC(Nc2cc(O)c(N3CC(=O)NS3(=O)=O)c(F)c2)CC1 [EXAMPLE 89, 5-(2-fluoro-6-hydroxy-4-((1-isopentylpiperidin-4-yl)amino)phenyl)-1,2,5-thiadiazolidin-3-one 1,1-dioxide] | ≥ 15 | ≥ 15 | 0.757
O=C1CN(c2c(O)ccc(CN3CCOCC3)c2F)S(=O)(=O)N1 [EXAMPLE 99, 5-(2-fluoro-6-hydroxy-3-(morpholinomethyl)phenyl)-1,2,5-thiadiazolidin-3-one 1,1-dioxide] | ≥ 15 | ≥ 15 | 
COc1ccc(-c2cc(O)c(N3CC(=O)NS3(=O)=O)c(F)c2)cn1 [EXAMPLE 23, 5-[2-fluoro-6-hydroxy-4-(6-methoxy-3-pyridyl)phenyl]-1,1-dioxo-1,2,5-thiadiazolidin-3-one] | ≥ 15 | ≥ 15 | 0.142
O=C1CN(c2c(O)cc(C(=O)N[C@H]3CCCNC3)cc2F)S(=O)(=O)N1 [EXAMPLE 93, (S)-4-(1,1-dioxido-4-oxo-1,2,5-thiadiazolidin-2-yl)-3-fluoro-5-hydroxy-N-(piperidin-3-yl)benzamide] | ≥ 15 | ≥ 15 | 
O=C1CN(c2c(O)cc(C(=O)NC3CCNCC3)cc2F)S(=O)(=O)N1 [EXAMPLE 92, 4-(1,1-dioxido-4-oxo-1,2,5-thiadiazolidin-2-yl)-3-fluoro-5-hydroxy-N-(piperidin-4-yl)benzamide] | ≥ 15 | ≥ 15 | 
O=C1CN(c2c(O)ccc(CNC3CCOCC3)c2F)S(=O)(=O)N1 [EXAMPLE 101, 5-(2-fluoro-6-hydroxy-3-(((tetrahydro-2H-pyran-4-yl)amino)methyl)phenyl)-1,2,5-thiadiazolidin-3-one 1,1-dioxide] | ≥ 15 | ≥ 15 | 
CN1CCN(Cc2ccc(O)c(N3CC(=O)NS3(=O)=O)c2F)CC1 [EXAMPLE 103, 5-(2-fluoro-6-hydroxy-3-((4-methylpiperazin-1-yl)methyl)phenyl)-1,2,5-thiadiazolidin-3-one 1,1-dioxide] | ≥ 15 | ≥ 15 | 
O=C1CN(c2c(O)ccc(C3CCNCC3)c2F)S(=O)(=O)N1 [EXAMPLE 105, 5-(2-fluoro-6-hydroxy-3-(piperidin-4-yl)phenyl)-1,2,5-thiadiazolidin-3-one 1,1-dioxide] | ≥ 15 | ≥ 15 | 
CN(C)[C@H]1CC[C@H](NC(=O)c2cc(O)c(N3CC(=O)NS3(=O)=O)c(F)c2)CC1 [EXAMPLE 96, N-((1r,4r)-4-(dimethylamino)cyclohexyl)-4-(1,1-dioxido-4-oxo-1,2,5-thiadiazolidin-2-yl)-3-fluoro-5-hydroxybenzamide] | ≥ 15 | ≥ 15 | 
O=C1CN(c2c(O)cc(C(=O)N[C@@H]3CCCNC3)cc2F)S(=O)(=O)N1 [EXAMPLE 94, (R)-4-(1,1-dioxido-4-oxo-1,2,5-thiadiazolidin-2-yl)-3-fluoro-5-hydroxy-N-(piperidin-3-yl)benzamide] | ≥ 15 | ≥ 15 | 
N#Cc1ccc(Cl)c(NCc2cc(O)c(N3CC(=O)NS3(=O)=O)c(F)c2)c1 [EXAMPLE 81, 4-chloro-3-[[3-fluoro-5-hydroxy-4-(1,1,4-trioxo-1,2,5-thiadiazolidin-2-yl)phenyl]methylamino]benzonitrile] | ≥ 15 | ≥ 15 | 
O=C1CN(c2c(O)ccc(CNC3CCCCC3)c2F)S(=O)(=O)N1 [EXAMPLE 100, 5-(3-((cyclohexylamino)methyl)-2-fluoro-6-hydroxyphenyl)-1,2,5-thiadiazolidin-3-one 1,1-dioxide] | ≥ 15 | ≥ 15 | 
CC(C)OC1CCN(Cc2cc(O)c(N3CC(=O)NS3(=O)=O)c(F)c2)CC1 [EXAMPLE 54, 5-[2-fluoro-6-hydroxy-4-[(4-isopropoxy-1-piperidyl)methyl]phenyl]-1,1-dioxo-1,2,5-thiadiazolidin-3-one] |  | 13.1 | 0.331
O=C1CN(c2c(O)cc(CN[C@H]3CCCN(S(=O)(=O)c4cccc(F)c4)C3)cc2F)S(=O)(=O)N1 [EXAMPLE 70, 5-[2-fluoro-4-[[[(3S)-1-(3-fluorophenyl)sulfonyl-3-piperidyl]amino]methyl]-6-hydroxy-phenyl]-1,1-dioxo-1,2,5-thiadiazolidin-3-one] |  | ≥ 15 | 0.03
COc1ncccc1-c1cc(O)c(N2CC(=O)NS2(=O)=O)c(F)c1 [EXAMPLE 25, 5-[2-fluoro-6-hydroxy-4-(2-methoxy-3-pyridyl)phenyl]-1,1-dioxo-1,2,5-thiadiazolidin-3-one] |  | 9.74 | 0.266
O=C1CN(c2c(O)cc(CN[C@@H]3CCCN(S(=O)(=O)c4cccc(F)c4)C3)cc2F)S(=O)(=O)N1 [EXAMPLE 69, 5-[2-fluoro-4-[[[(3R)-1-(3-fluorophenyl)sulfonyl-3-piperidyl]amino]methyl]-6-hydroxy-phenyl]-1,1-dioxo-1,2,5-thiadiazolidin-3-one] |  | ≥ 15 | 0.088
N#Cc1cc(CNCc2cc(O)c(N3CC(=O)NS3(=O)=O)c(F)c2)ccc1F [EXAMPLE 45, 2-fluoro-5-[[[3-fluoro-5-hydroxy-4-(1,1,4-trioxo-1,2,5-thiadiazolidin-2-yl)phenyl]methylamino]methyl]benzonitrile] |  | 1.87 | 0.07
CC1(C)CCC(NCc2ccc(O)c(N3CC(=O)NS3(=O)=O)c2F)CC1 [EXAMPLE 97, 5-(3-(((4,4-dimethylcyclohexyl)amino)methyl)-2-fluoro-6-hydroxyphenyl)-1,2,5-thiadiazolidin-3-one 1,1-dioxide] | ≥ 15 | ≥ 15 | 
CN(C)CCNC(=O)c1cc(O)c(N2CC(=O)NS2(=O)=O)c(F)c1 [EXAMPLE 91, N-(2-(dimethylamino)ethyl)-4-(1,1-dioxido-4-oxo-1,2,5-thiadiazolidin-2-yl)-3-fluoro-5-hydroxybenzamide] | ≥ 15 | ≥ 15 | 
